Consider 14 molecules from US10562910B2, “Nitrogen-containing tricyclic compounds and uses thereof in medicine” (SUNSHINE LAKE PHARMA CO., LTD., priority 2016, dated 2020).

Data set [1] deals with FXR-LBD (Homo sapiens (Human), UniProt Q96RI1). The experiment in a line: TR-FRET Farnesoid X Receptor Coactivator Assay. The data set is classed as biochemical. As to conditions: TR-FRET farnesoid X receptor protein coactivator activity. Here is the method: Purchasing invitrogen PV4833 kits. The procedure refers to LanthaScreen™ TR-FRET Farnesoid X Receptor Coactivator Assay
First, the required amount of the compound was weighed and dissolved in 100% DMSO at the maximum concentration of 3000 μM. The solution at the maximum concentration was diluted by 3-fold serial dilution in DMSO to get 10 concentrations;
Second, the above prepared solutions of different concentrations were diluted to 50-fold with a buffer supplied with the kit, to 2× compound solution, followed by mixing and then 10 μL of the diluted solution was added to a 384 well plate;
Third, FXR-LBD was diluted with a buffer to 4× solution, and 5 μL of the diluent was added to the 384 well plate of second step;
Fourth, Fluorescein-SRC2-2 and Tb anti-GST antibody were diluted to 4× Fluorescein-SRC2-2 and Tb anti-GST antibody solution. Then two reagents were mixed together, and 5 μL of the mixture was added to the 384 well plate of third step;
Finally, the solution of the 384 well above was mixed uniformly by centrifuging, and then incubated at room temperature for 1 h. Then the TR-FRET Endpoint method was used for measuring the solution at wavelengths of 520 nm, 495 nm and 337 nm.

In data set [2] the target is FXR ligand binding domain (LBD) (Homo sapiens (Human), UniProt Q96RI1). Put plainly: Mammalian one hybrid (M1H) GAL4 reporter gene assay in HEK293 cells. The data set is classed as cell-based. As to conditions: GAL4 reporter gene test. The text has this:
Mammalian one hybrid technology is also called chimeric receptor gene assay. Based on the GAL4 chimera receptor assay, the activity of compounds which mediated activation of FXR was detected by dual luciferase reporter assay. The methods were as follows: cDNA encoding the FXR ligand binding domain (LBD), the yeast GAL4 DNA binding domain (DBD) and the Renilla luciferase DNA were fused to construct a chimera expression plasmid pBIND-FXR (Promega). […] The plasmid pG5Luc (Promega) was used as the reporter plasmid, containing the GAL4 upstream activation sequence (UAS) and the Firefly luciferase receptor gene. All GAL4 reporter gene assays were done in HEK293 cells. Cells were cultured at 37° C., 5% CO2 under humidified conditions. […] The contents were mixed completely and incubated the mixtures for 15 minutes at room temperature. The volume of the transfection mixture was 2.5 μl/well. Trypsinized and diluted the cell slurry at a density of […] (100 μl/well for 96-well plate). Then added required volume of transfection mixture prepared previously into the cell slurry, and dispensed 100 μl/well of the cell slurry into the 96-well plate and incubated the plate for 24 hours at 37° C., 5% CO2 under humidified conditions. Compounds prediluted in complete medium were added into each well and then incubated at 37° C., 5% CO2 under humidified conditions for 18 hours. The firefly and renilla luciferase signal was assayed by Promega's Dual Luciferase Reporter Assay System.
The % Activation value was calculated by the following equation: Activation %=[(X−Min)/(Max−Min)]×100%. “X” is the “F/R” value from compounds. “F/R” means “Firefly/Renilla”. “Min” is the mean “F/R” value from no compound control. “Max” is the mean “F/R” value from reference compound control. Finally, the EC50 value of each compounds were calculated by GraphPrism 5.0.
For orientation: A reporter such as luciferase makes a cellular process visible.

The nature of data set [3]: Pharmacokinetics test in SD rats. Particulars: rat, plasma, male SD rats; for Vd: read-out: Vss; for bioavailability: po 5 mg/kg vs iv 1 mg/kg. The data set is classed as in vivo. Here is the method:
Example 22 Pharmacokinetics Test
Experimental animals: six healthy adult male SD rats (purchased from Hunan SJA Laboratory Animal Co. Ltd.) were divided into two groups, three rats in each group, and the two groups were given intravenous injection and oral administration respectively.
Drug preparation: a quantity of a compound of the present invention was weighed, and 5% DMSO, 10% Kolliphor HS15 and 85% saline (0.9%) were added to give target concentrations of the compound solution.
Administration and sample collection: animals were fasted for 12 h before administration, and fed at the time point of 3 hours after the administration. SD rats of one group were given intravenous injection (IV, 1 mg/kg) via hind legs and SD rats of the other group were given oral administration (PO, 5 mg/kg) respectively. Then blood was collected in the rat tail vein at the time point of 0, 0.083, 0.25, 0.5, 1, 2, 4, 6, 8, 24 h respectively, and the blood volume was about 200-400 μL/time point. After the collection of whole blood at each time point, the collected blood was set in K2EDTA anticoagulant tube, and the tube was placed in the incubator with ice packs. All samples were centrifuged for 5 min at 4° C. at 4600 r/min within 15 min. Plasma was separated and collected. The concentrations of different compounds in the plasma of the rats after administration were measured using LC/MS/MS method, and the pharmacokinetic parameters were calculated according to the curve of the drug concentration-time.

One may read the EC50 as the concentration that produces a half-maximal response. A lower EC50 goes with an effect from little substance. A word on the AUC(0-inf): it is the area under the concentration-time curve extrapolated to infinity. As a reminder, the AUC(0-t) is exposure summed from dosing to a finite time, without extrapolation to infinity. By Cmax is commonly meant the highest concentration seen after dosing. As a reminder, the MRT inf is the average time that molecules of a dose stay in the body. For orientation: Tmax means the time from dosing to the highest level. The term clearance denotes the volume of plasma or blood freed of the substance per unit of time. In general, half-life refers to the time in which the quantity being followed falls by half. A word on the bioavailability: it is dose-corrected exposure relative to a reference, in per cent. A low value points to poor availability.

Sequence of FXR-LBD (Q96RI1 262-486): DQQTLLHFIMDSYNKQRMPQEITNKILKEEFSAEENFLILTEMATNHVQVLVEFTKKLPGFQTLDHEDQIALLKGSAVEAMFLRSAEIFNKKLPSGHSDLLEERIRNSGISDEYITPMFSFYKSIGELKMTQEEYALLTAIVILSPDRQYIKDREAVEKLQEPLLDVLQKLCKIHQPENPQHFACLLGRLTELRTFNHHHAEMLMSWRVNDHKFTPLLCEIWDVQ
Sequence of FXR ligand binding domain (LBD) (Q96RI1 261-481): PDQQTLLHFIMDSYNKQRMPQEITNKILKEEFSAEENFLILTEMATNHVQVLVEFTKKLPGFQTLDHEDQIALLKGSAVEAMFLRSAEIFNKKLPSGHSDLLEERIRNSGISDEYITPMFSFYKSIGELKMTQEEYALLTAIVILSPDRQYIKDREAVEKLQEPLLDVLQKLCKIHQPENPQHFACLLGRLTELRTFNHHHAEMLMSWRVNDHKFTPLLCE

In turn, `O=C(O)c1cc2c(cc1F)CCc1nc(OCc3c(-c4c(Cl)cccc4Cl)noc3C3CC3)ccc1O2` [Example 6, 2-((5-cyclopropyl-3-(2,6-dichlorophenyl)isoxazol-4-yl)methoxy)-8-fluoro-10,11-dihydrobenzo[6,7]oxepino[3,2-b]pyridine-7-carboxylic acid] displayed an EC50 in data set [1] of 0.031 µM.

With `O=C(O)c1ccc2c(c1)Oc1ccc(OCc3c(-c4c(Cl)cccc4Cl)noc3C3CC3)nc1C(C1CC1)C2` (stereo not shown) [Example 17, 11-cyclopropyl-2-((5-cyclopropyl-3-(2,6-dichlorophenyl)isoxazol-4-yl)methoxy)-10,11-dihydrobenzo[6,7]oxepino[3,2-b]pyridine-7-carboxylic acid], the EC50 in data set [2] was determined as 0.065 µM.

Consider `O=C(O)c1ccc2c(c1)Oc1ccc(OCc3c(-c4c(Cl)cccc4Cl)noc3C3CC3)nc1C1(CC1)C2` [Example 9, 2-((5-cyclopropyl-3-(2,6-dichlorophenyl)isoxazol-4-yl)methoxy)-10H-spiro[benzo[6,7]oxepino[3,2-b]pyridine-11,1′-cyclopropane]-7-carboxylic acid], for which the midpoint of the response in data set [2], the EC50, lay at 0.002 µM.

Regarding `O=C(O)c1ccc2c(c1)Oc1ccc(OCc3c(-c4c(Cl)cccc4Cl)noc3C3CC3)nc1C=C2F` [Example 1, 2-((5-cyclopropyl-3-(2,6-dichlorophenyl)isoxazol-4-yl)methoxy)-10-fluorobenzo[6,7]oxepino[3,2-b]pyridine-7-carboxylic acid], in data set [1], a half-maximal response (EC50) required 0.0493 µM. Moreover, in data set [3] (iv 1 mg/kg), the total exposure AUC(0-inf) was determined as 1.54 µg·h/mL, the AUC(0-t) stood at 1.54 µg·h/mL, the peak level (Cmax) was 1.89 µg/mL and the MRT inf came to 47.5 min. In data set [3] (iv 1 mg/kg), the Tmax stood at 4.98 min, the clearance was 0.672 L/h/kg, the half-life was 43.4 min and the Vd was 0.522 L/kg. Further, in data set [3] (po 5 mg/kg), the AUC(0-inf) was 4.21 µg·h/mL, the AUC(0-t) came to 4.18 µg·h/mL, the highest level (Cmax) was 2.76 µg/mL and the mean residence time MRT inf stood at 79.2 min. Further, in data set [3] (po 5 mg/kg), the time of peak concentration (Tmax) stood at 30 min and the half-life was 54.8 min. In data set [3], the bioavailability worked out at 55%.

Turning to `O=C(O)c1ccc2c(c1)Oc1ccc(OCc3c(-c4c(Cl)cccc4Cl)noc3C3CC3)nc1C(F)=C2` [Example 5, 2-((5-cyclopropyl-3-(2,6-dichlorophenyl)isoxazol-4-yl)methoxy)-11-fluorobenzo[6,7]oxepino[3,2-b]pyridine-7-carboxylic acid], in data set [3] (iv 1 mg/kg), the AUC(0-inf) worked out at 1.58 µg·h/mL, the AUC(0-t) was found to be 1.58 µg·h/mL, the Cmax was found to be 3.04 µg/mL and the MRT inf worked out at 32.9 min. For the same molecule, in data set [3] (iv 1 mg/kg), the time of peak concentration (Tmax) was 4.98 min, the clearance was 0.636 L/h/kg, the half-life was 40.9 min and the Vd was 0.344 L/kg. Further, in data set [3] (po 5 mg/kg), the area under the curve AUC(0-inf) was found to be 7.48 µg·h/mL, the area under the curve AUC(0-t) is 7.45 µg·h/mL, the concentration peaked (Cmax) at 6.43 µg/mL and the MRT inf is 64.2 min. In addition, in data set [3] (po 5 mg/kg), the Tmax turned out to be 30 min and the half-life is 50.3 min. This molecule yielded a bioavailability in data set [3] of 95%.

`O=C(O)c1ccc2c(c1)Oc1ccc(OCc3c(-c4c(Cl)cccc4Cl)noc3C3CC3)nc1C(C1CC1)=C2` [Example 16, 11-cyclopropyl-2-((5-cyclopropyl-3-(2,6-dichlorophenyl)isoxazol-4-yl)methoxy)benzo[6,7]oxepino[3,2-b]pyridine-7-carboxylic acid] gave an EC50 in data set [2] of 0.005 µM. This counts as single-digit nanomolar.

Molecule `O=C(O)c1ccc2c(c1)Oc1ccc(OCc3c(-c4c(Cl)cccc4Cl)noc3C3CC3)nc1C(F)(F)C2O` (stereo not shown) [Example 12, 2-((5-cyclopropyl-3-(2,6-dichlorophenyl)isoxazol-4-yl)methoxy)-11,11-difluoro-10-hydroxy-10,11-dihydrobenzo[6,7]oxepino[3,2-b]pyridine-7-carboxylic acid] yielded an EC50 in data set [2] of 0.136 µM.

`CC1=Cc2ccc(C(=O)O)cc2Oc2ccc(OCc3c(C4CC4)cnn3-c3c(Cl)cccc3Cl)nc21` [Example 15, 2-((4-cyclopropyl-1-(2,6-dichlorophenyl)-1H-pyrazol-5-yl)methoxy)-11-methylbenzo[6,7]oxepino[3,2-b]pyridine-7-carboxylic acid] gave a concentration for a half-maximal effect (EC50) in data set [2] of 0.013 µM.

As for `O=C(O)c1ccc2c(c1)Oc1ccc(OCc3c(-c4c(Cl)cccc4Cl)noc3C3CC3)nc1C(C(F)(F)F)C2` (stereo not shown) [Example 8, 2-((5-cyclopropyl-3-(2,6-dichlorophenyl)isoxazol-4-yl)methoxy)-11-(trifluoromethyl)-10,11-dihydrobenzo[6,7]oxepino[3,2-b]pyridine-7-carboxylic acid], a half-maximal effect in data set [2] (EC50) was put at 0.026 µM.

`O=C(O)c1cc(F)c2c(c1)Oc1ccc(OCc3c(-c4c(Cl)cccc4Cl)noc3C3CC3)nc1CC2` [Example 4, 2-((5-cyclopropyl-3-(2,6-dichlorophenyl)isoxazol-4-yl)methoxy)-9-fluoro-10,11-dihydrobenzo[6,7]oxepino[3,2-b]pyridine-7-carboxylic acid] came in with a concentration for a half-maximal effect (EC50) in data set [1] of 0.0604 µM. This lies in the double-digit nanomolar range.

As for `CC1=Cc2nc(OCc3c(-c4c(Cl)cccc4Cl)noc3C3CC3)ccc2Oc2cc(C(=O)O)ccc21` [Example 18, 2-((5-cyclopropyl-3-(2,6-dichlorophenyl)isoxazol-4-yl)methoxy)-10-methylbenzo[6,7]oxepino[3,2-b]pyridine-7-carboxylic acid], in data set [2], the response was half-maximal at 0.093 µM (EC50).

Regarding `O=C(O)c1ccc2c(c1)Oc1ccc(OCc3c(-c4c(Cl)cccc4Cl)noc3C3CC3)nc1C(F)(F)C2` [Example 10, 2-((5-cyclopropyl-3-(2,6-dichlorophenyl)isoxazol-4-yl)methoxy)-11,11-difluoro-10,11-dihydrobenzo[6,7]oxepino[3,2-b]pyridine-7-carboxylic acid], it took 0.012 µM to reach a half-maximal effect in data set [2] (EC50). Besides, in data set [3] (iv 1 mg/kg), the AUC(0-inf) came to 1.33 µg·h/mL, the AUC(0-t) is 1.33 µg·h/mL, the maximum concentration (Cmax) turned out to be 3.02 µg/mL and the mean residence time (MRT inf) came to 25.7 min. In data set [3] (iv 1 mg/kg), the Tmax was found to be 4.98 min, the clearance was determined as 0.756 L/h/kg, the half-life is 47.6 min and the Vd was found to be 0.322 L/kg. In data set [3] (po 5 mg/kg), this molecule had an AUC(0-inf) of 5.84 µg·h/mL, an AUC(0-t) of 5.79 µg·h/mL, a Cmax of 3.76 µg/mL and a mean residence time (MRT inf) of 82.8 min. Besides, in data set [3] (po 5 mg/kg), the Tmax is 30 min and the half-life was 57.4 min. Moreover, the bioavailability in data set [3] came to 88%.

In data set [2], `O=C(O)c1ccc2c(c1)Oc1ccc(OCc3c(-c4c(Cl)cccc4Cl)noc3C3CC3)nc1C(C(F)(F)F)=C2` [Example 7, 2-((5-cyclopropyl-3-(2,6-dichlorophenyl)isoxazol-4-yl)methoxy)-11-(trifluoromethyl)benzo[6,7]oxepino[3,2-b]pyridine-7-carboxylic acid] returned an EC50 of 0.011 µM.

`O=C(O)c1ccc2c(c1)Oc1ccc(OCc3c(-c4c(Cl)cccc4Cl)noc3C3CC3)nc1C1CC21` (stereo not shown) [Example 3, 3-((5-cyclopropyl-3-(2,6-dichlorophenyl)isoxazol-4-yl)methoxy)-1a,10b-dihydro-1H-benzo[6,7]cyclopropa[4,5]oxepino[3,2-b]pyridine-8-carboxylic acid] displayed a 50% effective concentration (EC50) in data set [1] of 0.0761 µM.
